Legend:
HSC-T6 cells = assay: PPARγ induction and PPARγ siRNA reversal in HSC-T6 cells; assay type: cell-based, rat
Procedure: HSC-T6 cells, a rat immortalized HSC, retained all features of activated HSCs and was kindly provided by Dr. Friedman S L (Kim et al., J Biol Chem 1998 273:33750-33758). HSC-T6 cells were grown in Waymouth medium supplemented with 10% FBS at 37° C. in a humidified atmosphere of 5% CO2.
The total RNA was extracted from cells using the TRIzol (Invitrogen, Carlsbad, Calif.). […] The intensities of the PCR products were quantified using a FUJI LAS-3000 densitometer and Multi Gauge Ver. […]
Cells were scraped into lysis buffer (150 μL/35-mm well) containing 20 mM HEPES (pH 7.4), 1% SDS, 150 mM NaCl, 1 mM EGTA, 5 mM β-glycerophosphate, 10 mM sodium pyrophosphate, 10 mM sodium fluoride, […] sodium orthovanadate, 10 μg/mL leupeptin, and 10 μg/mL aprotinin. […] Proteins of interest were detected using the appropriate IgG-HRP secondary antibody and ECL reagent. X-ray films were scanned on a Model GS-700 Imaging Densitometer (Bio-Rad Laboratories, Hercules, Calif.) and analyzed using Labworks 4.0 software. For quantification, blots from at least three independent experiments were used. […]

[1] = system: liver-derived progenitor cells (LDPCs) in primary rat liver cells; assay: Clonogenic capacity of liver cells (LDPC colony formation); assay type: cell-based; conditions: basal medium with 4.5 nM PEDF, 50 nM 34-mer, 50 nM 44-mer or 10% FBS; after 11 days in culture
Procedure: (§1) Liver cells from Sprague Dawley rats were harvested by 2-step in situ collagenase perfusion technique. The cells were then washed in phosphate buffered saline and centrifuged (50 g for 5 minutes) twice at room temperature. The cells were not further subjected to any fractionation as previously described (Sahin M B et al., Liver Transpl. 2008 14(3):333-45). Freshly isolated rat liver cells were cultured in a medium consisting of 75% Dulbecco's modified Eagle's medium (DMEM) and 25% MCDB 201 (Sigma-Aldrich) supplemented with 10% fetal bovine serum, 1 mg/mL of bovine serum albumin (BSA; Sigma), 100 μM of β-mercaptoethanol (Gibco, Carlsbad, Calif.), 25 mM of 4-2-hydroxyethyl-1-piperazineethanesulfonic acid (HEPES), 5 mM of Nicotinamide (Sigma-Aldrich), 1% SITE liquid medium (Sigma-Aldrich), and penicillin (100 μg/ml)/streptomycin (100 μg/ml; Invitrogen, Carlsbad, Calif.) on Type I collagen (Sigma, St. Louis, Mo.) coated tissue culture plates or dishes at a density of 1×10^4 cells/cm^2 at 37° C. in 5% CO2.
To verify the function of 44-mer PEDF, primary rat liver cells were isolated in accordance with steps described above and cultivated (about 1×10^5 per well of 6-well plate; 1×10^4 cells/cm^2) in a conventional basal medium, which was further supplemented with 4.5 nM PEDF, 50 nM 34-mer PEDF, 50 nM 44-mer PEDF or 10% FBS. Medium was changed every 3 days. After being placed in culture for 11 days, clonogenic capacity of liver cells was continuously monitored by phase-contrast microscopy. During this time period, liver-derived progenitor cells (LDPCs) began markedly emerged in primary liver cultures while hepatocytes started dying out. Few colonies were formed by liver cells when continuously cultivated in basal medium, or medium supplemented with 34-mer or FBS.

[2] = system: culture-activated primary rat HSCs; assay: Activation of culture-activated primary hepatic stellate cells; assay type: cell-based; conditions: for Col1a1 expression (immunoblot) / MCP-1 expression (immunoblot) / amounts of PPARγ (immunoblot) / α-SMA expression (immunoblot): 48 hours vs solvent, 4.5 nM PEDF, 50 nM 34-mer, 50 nM 44-mer; for α-SMA by immunofluorescent staining: 34-mer compared with 44-mer PEDF treatment; for HSC morphology: phase contrast / immunofluorescence
Procedure: Primary HSCs were isolated by in situ perfusion with collagenase and pronase from livers of male Sprague-Dawley rats (300-450 g), followed by a 25%/50% Percoll gradient centrifugation at 4° C. HSCs were isolated from the upper layer of the discontinuous Percoll density gradient as previously described method (Titos et al., FASEB J 2003 17:1745-1747). Then cells were re-suspended in Dulbecco's modified Eagle's medium (DMEM) supplemented with 10% fetal bovine serum (FBS) and 1% penicillin/streptomycin and plated on 100-mm plastic dishes. Cell purity was verified to be approximately 95-98% by vitamin A fluorescence on day 2 after isolation. HSCs were activated by culturing the cells on plastic for 10 days and then passaged by trypsin-EDTA treatment. Subsequently, the activated HSCs were incubated in 10% FBS-DMEM for 2 days and then used for further experiments.
(§2) Deparaffinized liver tissue sections or 4% paraformaldehyde fixed HSCs were blocked with 10% goat serum and 5% BSA for 1 h. Dual staining was done using primary antibodies against human PEDF (se-59641; Santa Cruz Biotechnology, CA, USA) or α-SMA (ab5694 or ab7817; Abcam), PPARγ (sc-7273; Santa Cruz Biotechnology), albumin (sc-46295; Santa Cruz Biotechnology) or cytokeratin (CK) 18 (GTX112978; GeneTex, Inc.) at 37° C. for 2 h, followed by incubation with the appropriate rhodamine- or FITC-conjugated donkey IgG for 1 hr at room temperature. Nuclei were located by counterstaining with Hoechst 33258 for 7 min. Images were captured using a Zeiss epifluorescence microscope with a CCD camera.
(§3) Cells were scraped into lysis buffer (150 μL/35-mm well) containing 20 mM HEPES (pH 7.4), 1% SDS, 150 mM NaCl, 1 mM EGTA, 5 mM β-glycerophosphate, 10 mM sodium pyrophosphate, 10 mM sodium fluoride, […] sodium orthovanadate, 10 μg/mL leupeptin, and 10 μg/mL aprotinin. The lysate was incubated on ice for 15 min. Total cell lysate was also separated into cytoplasmic and nuclear fractions using the NE-PER nuclear and cytoplasmic extraction kit (Pierce, Rockford, Ill.) according to the manufacturer's instructions. Each cellular fraction was then resolved by SDS-PAGE and then electrotransferred to polyvinylidene difluoride membranes (Millipore, Bedford, Mass.) and processed for immunoblot analysis. Antibodies used in the immunoblot study included human PEDF (sc-59641; Santa Cruz Biotechnology), mouse PEDF (sc-74253; Santa Cruz Biotechnology), type I collagen 1A1 (sc-25974; Santa Cruz Biotechnology), α-SMA (ab5694 or ab7817; Abcam), PPARγ••(sc-7273; Santa Cruz Biotechnology), MCP-1 (ab7202; Abcam Ltd), α-actin (Sigma), epithelial cell adhesion molecule (EpCAM; sc-66020; Santa Cruz Biotechnology), hepatocytes nuclear factor and (HVF)3-β (sc-6554; Santa Cruz Biotechnology). Proteins of interest were detected using the appropriate IgG-HRP secondary antibody and ECL reagent. X-ray films were scanned on a Model GS-700 Imaging Densitometer (Bio-Rad Laboratories, Hercules, Calif.) and analyzed using Labworks 4.0 software. For quantification, blots from at least three independent experiments were used.
After treatment, primary rat HSCs were fixed for 2 h with 4% paraformaldehyde, washed by PBS and then permeabilized for 5 min with 0.1% Triton X-100. Changes in F-actin structures were detected by […] rhodamine-conjugated phalloidin (Sigma) for 1 h at room temperature. Stained F-actin was visualized using a Zeiss Axiovert 25 microscope.
To verify whether the PEDF-derived peptides, particularly, 34-mer PEDF and 44-mer PEDF, may prevent HSCs from activation, culture-activated primary rat HSCs were treated with 4.5 nM PEDF, 50 nM 44-mer, 50 nM 34-mer or PEDF solvent (20 mM Tris/HCl, pH 7.4, 100 mM NaCl) for 48 hours. […] Immunofluorescent assay also confirmed that 34-mer PEDF reduced the levels of α-SMA in culture-activated HSCs as compared with 44-mer PEDF treatment (FIG. 6F). Such result is consistent with the finding in Example 1 that PEDF prevents HSCs from activation by induction of PPARγ.

[3] = system: liver-derived progenitor cells (LDPCs); assay: Self-renewal of LDPCs over two passages and differentiation into hepatocytes; assay type: cell-based, rat; conditions: for autofluorescence (LDPC marker): 4.5 nM PEDF, 50 nM 34-mer or 50 nM 44-mer; for autofluorescence (LDPC marker) / self-renewal by expression of LDPC markers EpCAM and HNF3-β (immunoblot): two passages, 35 days; for ability of expanded LDPCs to differentiate into hepatocytes (albumin and CK-18 staining): immunofluorescence
Procedure: as §1, §2, §3
It has been reported that LDPCs may not be expanded in conventional basal medium, unless growth factor(s) were added therein (Sahin et al., Liver Transpl. 2008 14(3):333-45). To test the self-renewal property of PEDF derived peptides on LDPCs, liver cells were isolated and grown in separate medium including 4.5 nM (200 ng/ml) PEDF, 50 nM 34-mer or 50 nM 44-mer for two passages, which took a period of 35 days. The newly produced LDPCs in the cultured cells were confirmed by the detection of autofluorescence emitted therefrom; as well as two LDPC markers, which are epithelial cell adhesion molecule (EpCAM) and hepatocytes nuclear factor 3•••(HNF3)-β, by immunoblot analysis. […]

Row | Molecule | suppressive effects of PEDF on HSC activation (α-SMA, Col1a1, MCP-1) (HSC-T6 cells; siRNA pretreatment 16 hours before PEDF, 10 nM siRNA) | colonies of LDPCs formed [1] | Col1a1 expression (immunoblot) [2] | MCP-1 expression (immunoblot) [2] | amounts of PPARγ (immunoblot) [2] | α-SMA expression (immunoblot) [2] | autofluorescence (LDPC marker) [3] | ability of expanded LDPCs to differentiate into hepatocytes (albumin and CK-18 staining) [3] | self-renewal by expression of LDPC markers EpCAM and HNF3-β (immunoblot) [3] | α-SMA by immunofluorescent staining ([2]; culture-activated HSCs) | HSC morphology ([2]; culture-activated HSCs) | stress fiber (F-actin, rhodamine-phalloidin staining) ([2]; culture-activated HSCs) | mRNA and protein expression of PPARγ (HSC-T6 cells; 48 hours, RT-PCR and immunoblot)
1 | PPARγ siRNA: rat PPARγ siRNA (SEQ ID NO: 7/8) or a mixture of four rat PPARγ siRNAs (SMART-pools) (chain 1 CACCAUUUGUCAUCUACGATT; chain 2 UCGUAGAUGACAAAUGGUGTT; chemistry not given here) [reference compound] | significantly reduced the suppressive effects of PEDF | – | – | – | – | – | – | – | – | – | – | – | –
2 | Ac-VLLSPLSVATALSALSLGAEQRTESIIHRALTTDLISSPDIHGT-NH2 [44-mer PEDF] | – | dense colonies | does not possess such effects | does not possess such effects | does not possess such effects | does not possess such effects | emitted autofluorescence | retain the ability of differentiating into hepatocyte | exhibits self-renewal property | – | – | – | –
3 | 34-mer PEDF: synthetic human peptide, the segment of PEDF from amino acid residues 44 to 77 (Ac-DPFFKVPVNKLAAAVSNFGYDLYRVRSSTSPTTN-NH2) | – | Few colonies | reduced | reduced | enhanced | reduced | very little autofluorescence or none at all | – | – | reduced | causes reversal of the activated HSC morphology | – | –
4 | pigment-epithelium-derived factor (protein, UniProt P36955 20-418, looked up, pigment-epithelium-derived factor protein, used at 4.5 nM (200 ng/ml)) Pigment epithelium-derived …: QNPASPPEEGSPDPDSTGALVEEEDPFFKVPVNKLAAAVSNFGYDLYRVRSSTSPTTNVLLSPLSVATALSALSLGAEQRTESIIHRALYYDLISSPDIHGTYKELLDTVTAPQKNLKSASRIVFEKKLRIKSSFVAPLEKSYGTRPRVLTGNPRLDLQEINNWVQAQMKGKLARSTKEIPDEISILLLGVAHFKGQWVTKFDSRKTSLEDFYLDEERTVRVPMMSDPKAVLRYGLDSDLSCKIAQLPLTGSMSIIFFLPLKVTQNLTLIEESLTSEFIHDIDRELKTVQAVLTVPKLKLSYEGEVTKSLQEMKLQSLFDSPDFSKITGKPIKLTQVEHRAGFEWNEDGAGTTPSPGLQPAHLTFPLDYHLNQPFIFVLRDTDTGALLFIGKILDPRGP | – | dense colonies | significantly reduced | significantly reduced | enhanced | significantly reduced | emitted autofluorescence | retain the ability of differentiating into hepatocyte | exhibits self-renewal property | reduced | dendritic-like morphology with retracted cytoplasm | reduced | induced

Reference: US8507446B2, “Use of PEDF-derived polypeptides for treating liver cirrhosis” (MacKay Memorial Hospital, priority 2011, dated 2013)
